From US20140378416A1, “SILYL-CONTAINING HETEROCYCLIC COMPOUNDS AND METHODS OF USE THEREOF FOR THE TREATMENT OF VIRAL DISEASES” (priority 2011, published 2014)

Legend:
[1] = tested on: HCV replicon 1a Y93H; experiment: Cell-based HCV replicon assay (TaqMan), genotype 1a Y93H mutant replicon; conditions: Hepatitis C virus, 72 h, read-out: 1a Y93H EC90, HCV 1a Y93H mutant replicon cells, replicon RNA by TaqMan on day 3; EC90 = concentration for ΔCT=3.2 over baseline
Experimental: (§1) Measurement of inhibition by compounds of the present invention was performed using the HCV replicon system. Several different replicons encoding different HCV genotypes or mutations were used. In addition, potency measurements were made using different formats of the replicon assay, including different ways of measurements and different plating formats. See Jan M. Vrolijk et al., A replicons-based bioassay for the measurement of interferons in patients with chronic hepatitis C, 110 J. VIROLOGICAL METHODS 201 (2003); Steven S. Carroll et al., Inhibition of Hepatitis C Virus RNA Replication by 2′-Modified Nucleoside Analogs, 278(14) J. BIOLOGICAL CHEMISTRY 11979 (2003). However, the underlying principles are common to all of these determinations, and are outlined below.
(§2) Compounds of the present invention were assayed for cell-based anti-HCV activity using the following protocol. Replicon cells were seeded at 5000 cells/well in 96-well collagen I-coated Nunc plates in the presence of the test compound. Various concentrations of test compound, typically in 10 serial 2-fold dilutions, were added to the assay mixture, with the starting concentration ranging from 250 μM to 1 μM. The final concentration of DMSO was 0.5%, fetal bovine serum was 5%, in the assay media. Cells were harvested on day 3 by the addition of 1× cell lysis buffer (Ambion cat #8721). The replicon RNA level was measured using real time PCR (TaqMan® assay). The amplicon was located in 5B. The PCR primers were: 5B.2F, ATGGACAGGCGCCCTGA (SEQ. ID NO. 1); 5B.2R, […] (SEQ. ID NO. 2); the probe sequence was FAM-labeled CACGCCATGCGCTGCGG (SEQ. ID NO. 3). GAPDH RNA was used as endogenous control and was amplified in the same reaction as NS5B (multiplex PCR) using primers and VIC-labeled probe recommended by the manufacturer (PE Applied Biosystem). The real-time […] reactions were run on ABI PRISM 7900HT Sequence Detection System using the following program: 48° C. for 30 minutes, 95° C. for 10 minutes, 40 cycles of 95° C. for 15 sec, 60° C. for 1 minute. The ACT values (CT5B-CTGAPDH) were plotted against the concentration of test compound and fitted to the sigmoid dose-response model using XLfit4 (MDL). EC50 was defined as the concentration of inhibitor necessary to achieve ΔCT=1 over the projected baseline; EC90 the concentration necessary to achieve ΔCT=3.2 over the baseline. Alternatively, to quantitate the absolute amount of replicon RNA, a standard curve was established by including serially diluted T7 transcripts of replicon RNA in the Taqman assay. All TaqMan® reagents were from PE Applied Biosystems. Such an assay procedure was described in detail in e.g. Malcolm et al., Antimicrobial Agents and Chemotherapy 50: 1013-1020 (2006).
(§3) HCV replicon EC50 assay data for various replicons and mutants was calculated for selected compounds of the present invention using this method and is provided in the tables above herein.

[2] = tested on: HCV replicon 2b; experiment: Cell-based HCV replicon assay (TaqMan), genotype 2b replicon; conditions: Hepatitis C virus, 72 h, read-out: 2b EC90, HCV 2b replicon cells, replicon RNA by TaqMan on day 3; EC90 = concentration for ΔCT=3.2 over baseline
Experimental: as §1, §2, §3

[3] = tested on: HCV replicon 1a; experiment: Cell-based HCV replicon assay (TaqMan), genotype 1a replicon; conditions: Hepatitis C virus, 72 h, HCV 1a replicon cells, replicon RNA by TaqMan on day 3; EC90 = concentration for ΔCT=3.2 over baseline
Experimental: as §1, §2, §3

[4] = tested on: HCV replicon 1b; experiment: Cell-based HCV replicon assay (TaqMan), genotype 1b replicon; conditions: Hepatitis C virus, 72 h, HCV 1b replicon cells, replicon RNA by TaqMan on day 3; EC90 = concentration for ΔCT=3.2 over baseline
Experimental: as §1, §2, §3

With `COC(=O)N[C@H](C(=O)N1C[Si](C)(C)C[C@H]1c1nc(Cl)c(-c2ccc(-c3ccc(-c4[nH]c([C@@H]5C[C@H]6C[C@H]6N5C(=O)[C@@H](NC(=O)OC)C(C)C)nc4Cl)cc3)cc2)[nH]1)C(C)C` [Compound 51] as the compound, how does the EC90 [1] read?
Its EC90 is 13.7 nM.

What about the EC90 [2] of the same compound?
Its EC90 is 2.9 nM.

And the EC90 [3]?
The EC90 was 0.008 nM.

For `COC(=O)N[C@H](C(=O)N1C[C@H](F)C[C@H]1c1ncc(-c2ccc(C#Cc3ccc(-c4cnc([C@@H]5C[Si](C)(C)CN5C(=O)OC(C)(C)C)[nH]4)cc3)cc2)[nH]1)C(C)C` [Compound 56], which EC90 [1] is on record?
The EC90 was over 1000 nM.

What about the EC90 [3] of the same compound?
Its EC90 is 681 nM.

With `COC(=O)N[C@H](C(=O)N1C[C@H](F)C[C@H]1c1ncc(-c2ccc(C#Cc3ccc(-c4cnc([C@@H]5C[Si](C)(C)CN5)[nH]4)cc3)cc2)[nH]1)C(C)C` [Compound 57] as the compound, how does the EC90 [1] read?
Its EC90 is over 1000 nM.

And the EC90 [3]?
Its EC90 is 780 nM.

What does the source list for `CC(C)(C)OC(=O)N1C[Si](C)(C)C[C@H]1c1ncc(-c2ccc(-c3ccc(-c4[nH]c([C@@H]5CCCN5C(=O)OC(C)(C)C)nc4C4CC4)cc3)cc2)[nH]1` [Compound 61]?
EC90 [1]: 655 nM; EC90 [3]: 81 nM

What does the source list for `CC(C)(C)OC(=O)N1C[Si](C)(C)C[C@H]1c1ncc(-c2ccc(-c3ccc(-c4ncc([C@@H]5C[C@H]6C[C@H]6N5C(=O)OC(C)(C)C)[nH]4)cc3)cc2)[nH]1` [Compound 68]?
EC90 [1]: > 1000 nM; EC90 [3]: > 1000 nM

What does the source list for `COC(=O)N[C@H](C(=O)N1CCC[C@H]1c1ncc(-c2ccc(-c3ccc(-c4cnc([C@@H]5C[Si](C)(C)CN5C(=O)[C@@H](NC(=O)OC)C(C)C)[nH]4)c(OC)c3)cc2)[nH]1)C(C)C` [Compound 70]?
EC90 [1]: > 1000 nM; EC90 [4]: 0.006 nM; EC90 [3]: > 1 nM

How did the EC90 [1] turn out when `COC(=O)N[C@H](C(=O)N1C[Si](C)(C)C[C@H]1c1ncc(-c2ccc(-c3ccc4[nH]c([C@@H]5CC(F)(F)CN5C(=O)[C@@H](NC(=O)OC)C(C)C)nc4c3)cc2F)[nH]1)C(C)C` [Compound 71] was run?
The EC90 was over 1000 nM.

And the EC90 [4]?
Its EC90 is 0.005 nM.

What about the EC90 [3] of the same compound?
Its EC90 is over 1 nM.

With `COC(=O)N[C@H](C(=O)N1CCC[C@H]1c1cnc(-c2ccc(-c3ccc(-c4cnc([C@@H]5C[Si](C)(C)CN5C(=O)[C@@H](NC(=O)OC)C(C)C)[nH]4)cc3)cc2)[nH]1)C(C)C` [Compound 72] as the compound, how does the EC90 [1] read?
Its EC90 is 330 nM.

What about the EC90 [4] of the same compound?
The EC90 was 0.005 nM.

And the EC90 [3]?
The EC90 was 0.092 nM.

Which EC90 [1] does the source give for `COC(=O)N[C@H](C(=O)N1C[Si]2(CCCC2)C[C@H]1c1cnc(-c2ccc(-c3ccc(-c4cnc([C@@H]5CCCN5C(=O)[C@@H](NC(=O)OC)C(C)C)[nH]4)cc3)cc2)[nH]1)C(C)C` [Compound 73] here?
The EC90 was 973 nM.

And the EC90 [4]?
The EC90 was 0.006 nM.

And the EC90 [3]?
The EC90 was 0.38 nM.

How did the EC90 [1] turn out when `COC(=O)N[C@H](C(=O)N1CC(F)(F)C[C@H]1c1cnc(-c2ccc(-c3ccc(-c4cnc([C@@H]5C[Si](C)(C)CN5C(=O)[C@@H](NC(=O)OC)C(C)C)[nH]4)cc3)cc2)[nH]1)C(C)C` [Compound 74] was run?
Its EC90 is 644 nM.

What about the EC90 [3] of the same compound?
The EC90 was 0.27 nM.

For `CC(C)(C)OC(=O)N1CCC[C@H]1C(=O)Nc1n[nH]c2ccc(-c3ccc(-c4cnc([C@@H]5C[Si](C)(C)CN5C(=O)OC(C)(C)C)[nH]4)cc3)cc12` [Compound 76], which EC90 [1] is on record?
Its EC90 is over 10000 nM.

What about the EC90 [3] of the same compound?
Its EC90 is over 1000 nM.

Which EC90 [1] does the source give for `CC(C)(C)OC(=O)N1CCC[C@H]1C(=O)Nc1nn(C(=O)OC(C)(C)C)c2ccc(-c3ccc(-c4cnc([C@@H]5C[Si](C)(C)CN5C(=O)OC(C)(C)C)[nH]4)cc3)cc12` [Compound 77] here?
The EC90 was over 10000 nM.

And the EC90 [3]?
The EC90 was over 1000 nM.

Which EC90 [4] does the source give for `CC(C)(C)OC(=O)N1CCC[C@H]1c1cnc(-c2ccc3c(c2)[Si](C)(C)c2cc(-c4cnc([C@@H]5CCCN5C(=O)OC(C)(C)C)[nH]4)ccc2-3)[nH]1` [Compound 80] here?
The EC90 was 467 nM.

And the EC90 [3]?
The EC90 was over 1 nM.

Which EC90 [1] does the source give for `COC(=O)N[C@H](C(=O)N1CCC[C@H]1c1cnc(-c2ccc3c(c2)[Si](C)(C)c2cc(-c4cnc([C@@H]5CCCN5C(=O)[C@@H](NC(=O)OC)C(C)C)[nH]4)ccc2-3)[nH]1)C(C)C` [Compound 82] here?
The EC90 was 811 nM.

What about the EC90 [4] of the same compound?
Its EC90 is 0.043 nM.

And the EC90 [3]?
The EC90 was 0.076 nM.
